Reference: paper PMC9007462 (Journal of Medicinal Chemistry, 2022)

Experiments:
[1] = system: LNCaP; assay: MTT chemosensitivity assay, LNCaP; format: cell-based, human; conditions: Homo sapiens, LNCaP, 96 h exposure, ± SD, at least three independent experiments
[2] = target: T1, Human ALDH1A3 (Homo sapiens, UniProt P47895); assay: ALDH1A3 inhibition, IC50, Ki and type of inhibition; format: biochemical; conditions: for IC50: 6 μM hexanal as substrate
T1 construct: made in house
T1 sequence (P47895 1-512): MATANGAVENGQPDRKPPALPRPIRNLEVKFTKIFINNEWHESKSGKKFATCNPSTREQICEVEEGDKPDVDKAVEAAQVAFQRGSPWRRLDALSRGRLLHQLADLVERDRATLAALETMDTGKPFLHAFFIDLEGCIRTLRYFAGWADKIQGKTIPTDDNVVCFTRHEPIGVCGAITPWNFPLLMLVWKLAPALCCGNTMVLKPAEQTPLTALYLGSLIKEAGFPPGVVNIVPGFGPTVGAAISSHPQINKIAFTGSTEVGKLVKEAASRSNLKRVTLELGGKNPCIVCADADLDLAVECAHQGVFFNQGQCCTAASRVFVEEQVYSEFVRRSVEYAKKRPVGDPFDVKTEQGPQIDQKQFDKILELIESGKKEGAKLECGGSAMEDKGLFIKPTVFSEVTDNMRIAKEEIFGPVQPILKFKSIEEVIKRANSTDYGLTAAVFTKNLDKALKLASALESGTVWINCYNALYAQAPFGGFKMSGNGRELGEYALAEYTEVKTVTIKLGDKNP

[3] = system: patient-derived primary prostate tumor epithelial cells; assay: Alamar Blue cell viability of primary prostate epithelial cultures; format: cell-based, human; conditions: 72 h; for cell viability of primary prostate epithelial cultures, combination with docetaxel: 50 and 200 μM + 1 nM docetaxel; for cell viability of primary prostate epithelial cultures, single agent: 50 and 200 μM, four cancer samples and one BPH
Description: Primary cells cultured at early passage from human prostate tissue biopsies included one BPH sample H415/15–BPH/PSA 0.61 and four PCa samples H568/15 RM–Gl7(3 + 4)/PSA 8.5, H431/14 LM–Gl7(3 + 4)/PSA 14, H488/14 RM–Gl7(3 + 4)/PSA 12.6, and H517/15 RM–Gl7(3 + 4)/PSA 4.4. Primary cells were obtained with ethical consent (REC ref 07/H1304/121) at radical prostatectomy (cancer) and transurethral resection (BPH) and were seeded as previously described[37] in 96-well plates 5000 cells/well in 100 μL of SCM and incubated at 37 °C, 5% CO2 for 24 h. […] Cells were treated with 100 μL of ALDH inhibitors at concentrations of 50 and 200 μM as single treatment. Combination treatments included 100 μL of 50 μM ALDH inhibitor + 1 nM docetaxel and 100 μL of 200 μM ALDH inhibitor + 1 nM docetaxel. Cells were also treated with 100 μL of 1 nM docetaxel only. 1 nM docetaxel was chosen since it was the IC50 when other primary samples were analyzed in our laboratory. Control wells included blank (media only) and untreated cells (DMSO only). Each experiment was performed in triplicate, and cell seeding density was the same in all wells; therefore, changes in treated cells were compared to untreated DMSO control cells. Plates were returned to the incubator for a 72 h incubation before further processing. Alamar Blue solution was added at 10% of total sample volume, and plates were incubated at 37 °C for 1–4 h before absorbance was analyzed in a plate reader.[65] Alamar Blue has an excitation wavelength of 530–560 nm and an emission wavelength of 590 nm. Total % cell viability/cell survival was calculated by dividing the absorbance of the treated sample by the absorbance of control and multiplying it by 100.

[4] = system: DU145; assay: MTT chemosensitivity assay, DU145; format: cell-based, human; conditions: Homo sapiens, DU-145, 96 h exposure, ± SD, at least three independent experiments

Structure (SMILES)	IC50 [1]	IC50 ([2]; mean ± SE)	cell viability of primary prostate epithelial cultures, combination with docetaxel [3]	cell viability of primary prostate epithelial cultures, single agent [3]	IC50 [4]	type of inhibition ALDH1A3 ([2]; hexanal as substrate)	Ki ([2]; hexanal as substrate, fit to competitive inhibition equation, mean ± SE)	fold difference in capacity to inhibit ALDH1A3, 14 vs 13 ([2]; ratio of IC50 values)
CCCN(CCC)c1ccc(C=O)cc1[N+](=O)[O-] [Compound 18, 4-(Dipropylamino)-3-Nitrobenzaldehyde]	31 ± 6 µM	106 ± 16 µM	more potent than DEAB	more potent than DEAB	100 ± 13 µM			
CCCN(CCC)c1ccc(C=O)cc1Br [Compound 14, 3-Bromo-4-(dipropylamino)benzaldehyde]	25 ± 1 µM	0.63 ± 0.02 µM	more potent than DEAB	more potent than DEAB	61 ± 5 µM	competitive	0.46 ± 0.15 µM	approximately 17 fold
